Read-outs that look alike come from different tables or passages of the source.
Legend:
Assay type in all cases: in vivo
[1] = tested on: wheat (Triticum aestivum); assay: Test A postemergence; details: Triticum aestivum, post-emergence, 240 h, postemergence; for plant injury at 125 g/ha: 125 g ai/ha
Procedure, shortened: (§1)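 Seeded soil received test chemicals as a preemergence directed spray, and seedlings at one to two leaves, 2–10 cm tall, received them postemergence, in a non-phytotoxic, surfactant-containing solvent mixture. Pots were held in a greenhouse for approximately 10 d, then rated for injury from 0, no effect, to 100, complete control.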

[2] = tested on: ryegrass, Italian (Italian ryegrass, Lolium multiflorum); assay: Test A postemergence; details: Lolium multiflorum, post-emergence, 240 h, postemergence; for pest or weed control at 125 g/ha: 125 g ai/ha
Procedure, shortened: as §1

[3] = tested on: blackgrass (Alopecurus myosuroides); assay: Test A postemergence; details: Alopecurus myosuroides, post-emergence, 240 h, postemergence; for pest or weed control at 125 g/ha: 125 g ai/ha
Procedure, shortened: as §1

[4] = tested on: Kochia (Kochia scoparia); assay: Test A postemergence; details: Bassia scoparia, post-emergence, 240 h, postemergence; for pest or weed control at 125 g/ha: 125 g ai/ha
Procedure, shortened: as §1

[5] = tested on: barnyardgrass (Echinochloa crus-galli); assay: Test A postemergence; details: Echinochloa crus-galli, post-emergence, 240 h, postemergence; for pest or weed control at 125 g/ha: 125 g ai/ha
Procedure, shortened: as §1

[6] = tested on: ragweed (common ragweed, Ambrosia elatior); assay: Test A postemergence; details: Ambrosia artemisiifolia, post-emergence, 240 h, postemergence; for pest or weed control at 125 g/ha: 125 g ai/ha
Procedure, shortened: as §1

[7] = tested on: pigweed (Amaranthus retroflexus); assay: Test A postemergence; details: Amaranthus retroflexus, post-emergence, 240 h, postemergence; for pest or weed control at 125 g/ha: 125 g ai/ha
Procedure, shortened: as §1

[8] = tested on: Galium (catchweed bedstraw, Galium aparine); assay: Test A postemergence; details: Galium, post-emergence, 240 h, postemergence; for pest or weed control at 125 g/ha: 125 g ai/ha
Procedure, shortened: as §1

[9] = tested on: corn (Zea mays); assay: Test A postemergence; details: Zea mays, post-emergence, 240 h, postemergence; for plant injury at 125 g/ha: 125 g ai/ha
Procedure, shortened: as §1

[10] = tested on: giant foxtail (Setaria faberii); assay: Test A postemergence; details: Setaria faberi, post-emergence, 240 h, postemergence; for pest or weed control at 125 g/ha: 125 g ai/ha
Procedure, shortened: as §1

[11] = tested on: barnyardgrass (Echinochloa crus-galli); assay: Test A preemergence; details: Echinochloa crus-galli, pre-emergence, 240 h; for pest or weed control at 125 g/ha: 125 g ai/ha; for pest or weed control at 500 g/ha: 500 g ai/ha
Procedure, shortened: as §1

[12] = tested on: rice (Oryra sativa); assay: Test B flooded paddy test; details: Oryza sativa, 250 g ai/ha, Flood, read-out: Rice plant response rating
Procedure, shortened: (§2)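 2-leaf plants; pots flooded 3 cm over soil; cpd added to paddy water; depth held; greenhouse 13–15 d; visual rating vs controls, 0 = no effect, 100 = complete control.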

[13] = tested on: sedge, umbrella (small-flower umbrella sedge, Cyperus difformis); assay: Test B flooded paddy test; details: Cyperus difformis, 250 g ai/ha, Flood, read-out: Sedge, Umbrella plant response rating
Procedure, shortened: as §2

[14] = tested on: barnyardgrass (Echinochloa crus-galli); assay: Test B flooded paddy test; details: Echinochloa crus-galli, 250 g ai/ha, Flood, read-out: Barnyardgrass plant response rating
Procedure, shortened: as §2

[15] = tested on: ducksalad (Heteranthera limosa); assay: Test B flooded paddy test; details: Heteranthera limosa, 250 g ai/ha, Flood, read-out: Ducksalad plant response rating
Procedure, shortened: as §2

[16] = preemergence, 0 to 100 scale where 0 is no effect and 100 is complete control, read-out: Barnyardgrass plant response rating
[17] = 0 to 100 scale where 0 is no effect and 100 is complete control
[18] = visual injury rating after approximately 10 d, read-out: Wheat plant response rating (0 to 100 scale, 0 no effect, 100 complete control)
[19] = visual injury rating after approximately 10 d, read-out: Ryegrass, Italian plant response rating (0 to 100 scale, 0 no effect, 100 complete control)
[20] = visual injury rating after approximately 10 d, read-out: Blackgrass plant response rating (0 to 100 scale, 0 no effect, 100 complete control)
[21] = visual injury rating after approximately 10 d, read-out: Kochia plant response rating (0 to 100 scale, 0 no effect, 100 complete control)
[22] = visual injury rating after approximately 10 d, read-out: Barnyardgrass plant response rating (0 to 100 scale, 0 no effect, 100 complete control)
[23] = visual injury rating after approximately 10 d, read-out: Ragweed plant response rating (0 to 100 scale, 0 no effect, 100 complete control)
[24] = visual injury rating after approximately 10 d, read-out: Pigweed plant response rating (0 to 100 scale, 0 no effect, 100 complete control)
[25] = visual injury rating after approximately 10 d, read-out: Galium plant response rating (0 to 100 scale, 0 no effect, 100 complete control)
[26] = visual injury rating after approximately 10 d, read-out: Corn plant response rating (0 to 100 scale, 0 no effect, 100 complete control)
[27] = visual injury rating after approximately 10 d, read-out: Foxtail, Giant plant response rating (0 to 100 scale, 0 no effect, 100 complete control)
[28] = Preemergence, visual injury vs untreated controls after approximately 10 d, read-out: Barnyardgrass plant response rating (0 to 100 scale where 0 is no effect and 100 is complete control)
[29] = scale of 0 to 100 where 0 is no effect and 100 is complete control

CN1C[C@H](c2ccc(C#N)cc2)[C@@H](C(=O)Nc2ccccc2F)C1=O [Compound 1207]
plant injury at 125 g/ha ([1]; visual injury vs untreated controls after approx. 10 d, 0 = no effect, 100 = complete control, read-out: Wheat plant response rating (0 to 100 scale)): 0%
plant injury at 500 g/ha ([1]; 500 g ai/ha, 0 to 100 scale, 0 is no effect, 100 is complete control, read-out: Wheat plant response rating): 0%
pest or weed control at 125 g/ha ([2]; visual injury vs untreated controls after approx. 10 d, 0 = no effect, 100 = complete control, read-out: Ryegrass, Italian plant response rating (0 to 100 scale)): 0%
pest or weed control at 500 g/ha ([2]; 500 g ai/ha, 0 to 100 scale, 0 is no effect, 100 is complete control, read-out: Ryegrass, Italian plant response rating): 0%
pest or weed control at 125 g/ha ([3]; visual injury vs untreated controls after approx. 10 d, 0 = no effect, 100 = complete control, read-out: Blackgrass plant response rating (0 to 100 scale)): 0%
pest or weed control at 500 g/ha ([3]; 500 g ai/ha, 0 to 100 scale, 0 is no effect, 100 is complete control, read-out: Blackgrass plant response rating): 0%
pest or weed control at 125 g/ha ([4]; visual injury vs untreated controls after approx. 10 d, 0 = no effect, 100 = complete control, read-out: Kochia plant response rating (0 to 100 scale)): 20%
pest or weed control at 500 g/ha ([4]; 500 g ai/ha, 0 to 100 scale, 0 is no effect, 100 is complete control, read-out: Kochia plant response rating): 60%
pest or weed control at 125 g/ha ([5]; visual injury vs untreated controls after approx. 10 d, 0 = no effect, 100 = complete control, read-out: Barnyardgrass plant response rating (0 to 100 scale)): 70%
pest or weed control at 500 g/ha ([5]; 500 g ai/ha, 0 to 100 scale, 0 is no effect, 100 is complete control, read-out: Barnyardgrass plant response rating): 100%
pest or weed control at 125 g/ha ([6]; visual injury vs untreated controls after approx. 10 d, 0 = no effect, 100 = complete control, read-out: Ragweed plant response rating (0 to 100 scale)): 0%
pest or weed control at 500 g/ha ([6]; 500 g ai/ha, 0 to 100 scale, 0 is no effect, 100 is complete control, read-out: Ragweed plant response rating): 30%
pest or weed control at 125 g/ha ([7]; visual injury vs untreated controls after approx. 10 d, 0 = no effect, 100 = complete control, read-out: Pigweed plant response rating (0 to 100 scale)): 0%
pest or weed control at 500 g/ha ([7]; 500 g ai/ha, 0 to 100 scale, 0 is no effect, 100 is complete control, read-out: Pigweed plant response rating): 20%
pest or weed control at 125 g/ha ([8]; visual injury vs untreated controls after approx. 10 d, 0 = no effect, 100 = complete control, read-out: Galium plant response rating (0 to 100 scale)): 20%
pest or weed control at 500 g/ha ([8]; 500 g ai/ha, 0 to 100 scale, 0 is no effect, 100 is complete control, read-out: Galium plant response rating): 40%
plant injury at 125 g/ha ([9]; visual injury vs untreated controls after approx. 10 d, 0 = no effect, 100 = complete control, read-out: Corn plant response rating (0 to 100 scale)): 0%
plant injury at 500 g/ha ([9]; 500 g ai/ha, 0 to 100 scale, 0 is no effect, 100 is complete control, read-out: Corn plant response rating): 0%
pest or weed control at 125 g/ha ([10]; visual injury vs untreated controls after approx. 10 d, 0 = no effect, 100 = complete control, read-out: Foxtail, Giant plant response rating (0 to 100 scale)): 50%
pest or weed control at 500 g/ha ([10]; 500 g ai/ha, 0 to 100 scale, 0 is no effect, 100 is complete control, read-out: Foxtail, Giant plant response rating): 90%
pest or weed control at 125 g/ha ([11]; preemergence, visual injury rating, 0 to 100 scale where 0 is no effect and 100 is complete control, approximately 10 d, read-out: Barnyardgrass plant response rating): 60%
pest or weed control at 500 g/ha [11, 16]: 100%
pest or weed control at 250 g/ha [12, 17]: 0%
pest or weed control at 250 g/ha [13, 17]: 0%
pest or weed control at 250 g/ha [14, 17]: 0%
pest or weed control at 250 g/ha [15, 17]: 100%

COc1c(F)ccc([C@H]2CNC(=O)[C@@H]2C(=O)Nc2ccccc2C(F)(F)F)c1Cl [Compound 891]
plant injury at 125 g/ha [1, 18]: 0%
pest or weed control at 125 g/ha [2, 19]: 0%
pest or weed control at 125 g/ha [3, 20]: 0%
pest or weed control at 125 g/ha [4, 21]: 0%
pest or weed control at 125 g/ha [5, 22]: 50%
pest or weed control at 125 g/ha [6, 23]: 0%
pest or weed control at 125 g/ha [7, 24]: 0%
pest or weed control at 125 g/ha [8, 25]: 30%
plant injury at 125 g/ha [9, 26]: 20%
pest or weed control at 125 g/ha [10, 27]: 40%
pest or weed control at 125 g/ha [11, 16]: 60%
pest or weed control at 500 g/ha [11, 28]: 80%
pest or weed control at 250 g/ha [12, 29]: 20%
pest or weed control at 250 g/ha [13, 29]: 0%
pest or weed control at 250 g/ha [14, 29]: 0%
pest or weed control at 250 g/ha [15, 29]: 100%

CN1C[C@H](c2cc(F)cc(F)c2)[C@@H](C(=O)Nc2ccccc2[S@+](C)[O-])C1=O [Compound 871]
plant injury at 125 g/ha [1, 18]: 20%
pest or weed control at 125 g/ha [2, 19]: 20%
pest or weed control at 125 g/ha [3, 20]: 0%
pest or weed control at 125 g/ha [4, 21]: 0%
pest or weed control at 125 g/ha [5, 22]: 50%
pest or weed control at 125 g/ha [6, 23]: 0%
pest or weed control at 125 g/ha [7, 24]: 0%
pest or weed control at 125 g/ha [8, 25]: 50%
plant injury at 125 g/ha [9, 26]: 20%
pest or weed control at 125 g/ha [10, 27]: 40%
pest or weed control at 125 g/ha [11, 16]: 20%
pest or weed control at 500 g/ha [11, 28]: 90%
pest or weed control at 250 g/ha [12, 29]: 0%
pest or weed control at 250 g/ha [13, 29]: 0%
pest or weed control at 250 g/ha [14, 29]: 0%
pest or weed control at 250 g/ha [15, 29]: 0%

From patent publication US12077503B2, “Substituted cyclic amides and their use as herbicides” (FMC CORPORATION, priority 2015, dated 2024)
